Test results from the supplement of paper PMC4862054.

How the values were obtained:
Experiment in all cases: normalised response (% of control), CellTiter-Glo; higher = more viable cells (100 = DMSO, 0 = benzethonium chloride kill control)
Conditions in all cases: incubation time: 72 h
MDA-MB-453 = tested on: MDA-MB-453
Procedure, shortened: (§1)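 Breast cancer cell lines (20 µl suspension) were seeded into 384-well plates holding compound at 5 concentrations in 10-fold steps over a compound-specific 10,000-fold range, then incubated 72 h. CellTox Green fluorescence (485/520 nm) was read first, then CellTiter-Glo luminescence after 10 min at room temperature. Each plate was normalised to 0.1 % DMSO (100) and a positive kill control (0). Each value is the normalised signal at a single concentration of the series.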

CAL-120 = tested on: CAL-120
Procedure, shortened: as §1

HDQ-P1 = tested on: HDQ-P1
Procedure, shortened: as §1

BT-549 = tested on: BT-549
Procedure, shortened: as §1

SK-BR-3 = tested on: SK-BR-3
Procedure, shortened: as §1

MCF-10A = tested on: MCF-10A
Procedure, shortened: as §1

DU-4475 = tested on: DU-4475
Procedure, shortened: as §1

HCC1937 = tested on: HCC1937
Procedure, shortened: as §1

MFM-223 = tested on: MFM-223
Procedure, shortened: as §1

CAL-85-1 = tested on: CAL-85-1
Procedure, shortened: as §1

HCC1599 = tested on: HCC1599
Procedure, shortened: as §1

BT-474 = tested on: BT-474
Procedure, shortened: as §1

MDA-MB-231 = tested on: MDA-MB-231
Procedure, shortened: as §1

MDA-MB-468 = tested on: MDA-MB-468
Procedure, shortened: as §1

HCC1143 = tested on: HCC1143
Procedure, shortened: as §1

Hs578T = tested on: Hs578T
Procedure, shortened: as §1

MDA-MB-436 = tested on: MDA-MB-436
Procedure, shortened: as §1

CAL-51 = tested on: CAL-51
Procedure, shortened: as §1

CAL-148 = tested on: CAL-148
Procedure, shortened: as §1

Row | SMILES | normalised response (MDA-MB-453) [%] | normalised response (CAL-120) [%] | normalised response (HDQ-P1) [%] | normalised response (BT-549) [%] | normalised response (SK-BR-3) [%] | normalised response (MCF-10A) [%] | normalised response (DU-4475) [%] | normalised response (HCC1937) [%] | normalised response (MFM-223) [%] | normalised response (CAL-85-1) [%] | normalised response (HCC1599) [%] | normalised response (BT-474) [%] | normalised response (MDA-MB-231) [%] | normalised response (MDA-MB-468) [%] | normalised response (HCC1143) [%] | normalised response (Hs578T) [%] | normalised response (MDA-MB-436) [%] | normalised response (CAL-51) [%] | normalised response (CAL-148) [%]
1 | Cn1cc(C2=Nc3cc(NC(=O)C(N)C4CCCCC4)cc4c3C2=CNNC4=O)cn1 (stereo unspecified) (1 nM) | 84.3 | 97.1 | 91.4 | 98.2 | 82.5 | 80 | 98.3 | 94.1 | 86.7 | 95.9 | 97.4 | 93.8 | 95 | 91.2 | 86.8 | 94 | 86.7 | 103 | 91.3
2 | Cn1cc(C2=Nc3cc(NC(=O)C(N)C4CCCCC4)cc4c3C2=CNNC4=O)cn1 (stereo unspecified) (10 nM) | 91.7 | 90.9 | 91.7 | 95.2 | 77.2 | 84.6 | 95.3 | 96.2 | 90.4 | 93.3 | 93.4 | 94 | 91.2 | 90.6 | 90.4 | 94.3 | 89.4 | 134 | 87.3
3 | COc1cc2c(cc1O)CC[C@@H]1[C@@H]2CC[C@]2(C)[C@@H](O)CC[C@@H]12 [2-methoxyestradiol] (10 nM) | 96.4 | 101 | 101 | 94 |  | 94.6 | 101 | 98.1 | 96.5 | 103 | 92.7 | 97.8 | 97.7 | 98.2 | 103 | 96.8 | 106 | 97.5 | 91.3
4 | Cc1sc2c(c1C)C(c1ccc(Cl)cc1)=N[C@@H](CC(=O)OC(C)(C)C)c1nnc(C)n1-2 [(+)JQ1] (10 nM) | 111 | 94.8 | 101 | 96.2 |  | 107 | 104 | 94.5 | 108 | 101 | 104 | 108 | 110 | 98.3 | 105 | 98.1 | 113 | 107 | 116
5 | CC1(C)CCC(CN2CCN(c3ccc(C(=O)NS(=O)(=O)c4ccc(NCC5CCOCC5)c([N+](=O)[O-])c4)c(Oc4cnc5[nH]ccc5c4)c3)CC2)=C(c2ccc(Cl)cc2)C1 [ABT-199] (1 nM) | 101 | 98.9 | 101 | 98.9 | 95.4 | 98.3 | 98.2 | 106 | 96.8 | 99.5 | 89.5 | 94.8 | 97.4 | 94.1 | 98.6 | 104 | 98.5 | 122 | 100
6 | CC1(C)CCC(CN2CCN(c3ccc(C(=O)NS(=O)(=O)c4ccc(NCC5CCOCC5)c([N+](=O)[O-])c4)c(Oc4cnc5[nH]ccc5c4)c3)CC2)=C(c2ccc(Cl)cc2)C1 [ABT-199] (10 nM) | 97.5 | 91.8 | 97.1 | 95.7 |  | 101 | 96.2 | 99.7 | 100 | 106 | 104 | 97.3 | 97.2 | 118 | 99.2 | 103 | 102 | 68.3 | 103
7 | Oc1ncnc2[nH]ncc12 [Allopurinol] (10 nM) | 109 | 99 | 99.5 | 101 | 106 | 107 | 106 | 99.2 | 108 | 98.6 | 104 | 102 | 99.6 | 99 | 103 | 97.5 | 96.5 | 98.1 | 107
8 | O=C1CN2Cc3c(ccc(Cl)c3Cl)N=C2N1 [Anagrelide] (10 nM) | 102 | 96.5 | 98.7 | 101 | 94.2 | 103 | 101 | 94.8 | 99.2 | 93.8 | 100 | 95.5 | 97 | 100 | 103 | 97.5 | 95.2 | 115 | 93.9
9 | Nc1ncn([C@@H]2O[C@H](CO)[C@@H](O)[C@H]2O)c(=O)n1 [Azacitidine] (10 nM) | 105 | 99.3 | 99.5 | 93.4 | 110 | 103 | 102 | 101 | 96.2 | 101 | 105 | 99.9 | 94.3 | 103 | 99.4 | 97.5 | 105 | 113 | 92
10 | O=NN(CCCl)C(=O)NCCCl [Carmustine] (10 nM) | 114 | 98.9 | 94.8 | 100 |  | 96.6 | 101 | 101 | 102 | 95.6 | 97.9 | 93.8 | 91.9 | 102 | 105 | 105 | 98.4 | 128 | 93.3
